# From patent US20080063699A1, “Method of Administering Cationic Liposomes Comprising an Active Drug” (priority 2003, published 2008)
# Several values for one entry are separate records, joined by “and”; a condition that tells them apart may be missing. Equal entries are not always repeated. Where two headings read alike, the source gives them in different places.
# Key:
# [1] = system: Solid orthotopic L3.6pl pancreas tumor; test: Anti-tumor efficacy in combination with gemcitabine (50 mg/kg); type: in vivo; details: for tumor size: day 28 after tumor inoculation, after harvest
# Text: • Species: male Balb/c nu/nu mice • Tumor model: Solid orthotopic L3.6pI pancreas tumor (highly mestastatic; Bruns C J, Harbison M T, Kuniyasu H, Eue I, Fidler I J. In vivo selection and characterization of metastatic variants from human pancreatic adenocarcinoma by using orthotopic implantation in nude mice. Neoplasia 1999; 1(1):50-62.) • Supplier: Charles River France
# Tumor volume palpated at day 10, 12, 14, 17, 19, 21, 24 after inoculation and at day 26, 28 after harvesting
# Necrospy after harvest at day 26 and 28
# [2] = system: Solid orthotopic L3.6pl pancreas tumor; test: Anti-tumor efficacy in combination with gemcitabine (100 mg/kg); details: for final tumor volume compared to the control group: day 27, Gemzar 100 mg/kg i.p., MBT-0206/paclitaxel 5 mg/kg i.v.
# Method: Tumor size of L3.6pI pancreatic tumors 19 days after start of treatment. Treatment with 10% trehalose, paclitaxel, MBT-0206, Gemzar (gemcitabine) and the combination of both MBT-0206 and Gemzar started 8 days after tumor cell inoculation. Gemzar was applied i.p. at a dose of 100 mg/kg bw twice a week (Mon, Thu). paclitaxel and MBT-0206 were applied i.v. on a Mon, Wed, Fri schedule at a paclitaxel dose of 5 mg/kg bw. The combination group received both MBT-0206 and Gemzar with the respective schedule. Tumors were measured by palpation with a calliper on day 23 and 27. Mean±SEM; n=9 per group.
# Metastases at day 19 after start of treatment. Treatment with 10% trehalose, paclitaxel, MBT-0206, Gemzar (gemcitabine) and the combination of both MBT-0206 and Gemzar started at day 8 after tumor cell inoculation. Geinzar was applied i.p. at a dose of 100 mg/kg bw twice a week (Mon, Thu). paclitaxel and MBT-0206 were applied i.v. on a Mon, Wed, Fri schedule at a paclitaxel dose of 5 mg/kg bw. The combination group received both MBT-0206 and Gemzar with the respective schedule, n=9 per group.
# Tumor volume palpated at day 23, 26 after inoculation and after harvesting
# Necrospy after harvest at day 27
# [3] = system: highly drug-resistant uterus sarcoma line Mes-SA/Dx-5MBT; test: Growth inhibitory assay (MTT, 72 h); type: cell-based, human; details: for IC50: Homo sapiens, MES-SA
# Method: (§1) FIG. 3-5: The growth inhibitory assay was performed in 24-well plates with each drug concentration tested in duplicate (n=2 wells). 4×10^4 cells per well were seeded into a 24-well plate and incubated over night. The following day, 10-11 concentrations of the respective drug formulation were added for 72 h to cover the range depicted in the respective graphs. Finally, the cell viability was determined by a standard MTT-assay measuring the activity of mitochondrial-dehydrogenases.
# as §1, with “The” for “FIG. 3-5: The”, “mitochondrial dehydrogenases.” for “mitochondrial-dehydrogenases.”
# These cell lines were selected by stepwise increasing the concentration of paclitaxel in the culture medium.
# (§2) The highly paclitaxel resistant derivative cell line Mes-SA/Dx-5MBT was selected with increasing paclitaxel concentrations from the commercially available line Mes-SA/Dx-5 (ATCC, {Harker, 1986 #29}).
# [4] = system: moderatly drug-resistant uterus sarcoma line Mes-SA/Dx-5; test: Growth inhibitory assay (MTT, 72 h); type: cell-based, human
# Method: as §1, §2
# [5] = system: drug-sensitive human uterus sarcoma line Mes-SA; test: Growth inhibitory assay (MTT, 72 h); type: cell-based; details: FIG. 5
# Method: as §1
# as §1, with “The” for “FIG. 3-5: The”, “mitochondrial dehydrogenases.” for “mitochondrial-dehydrogenases.”
# as §2
# [6] = system: highly drug-resistant murine colon carcinoma line Colon-26MBT; test: Growth inhibitory assay (MTT, 72 h); type: cell-based; details: Mus musculus
# Method: as §1, with “6-7:” for “3-5:”, “mitochondrial dehydrogenases.” for “mitochondrial-dehydrogenases.”
# [7] = system: parental drug-sensitive murine colon carcinoma line Colon-26; test: Growth inhibitory assay (MTT, 72 h); type: cell-based; details: FIG. 7
# Method: as §1, with “6-7:” for “3-5:”, “mitochondrial dehydrogenases.” for “mitochondrial-dehydrogenases.”
# [8] = system: drug-resistant human dermal melanoma line Sk-Mel28; test: Growth inhibitory assay (MTT, 72 h); type: cell-based; details: SK-MEL-28, FIG. 10
# Method: as §1, with “10: Inhibitory Potential of paclitaxel against the drug-resistant human dermal melanoma line Sk-Mel28.” for “3-5:”, “11” for “10-11”, “mitochondrial dehydrogenases.” for “mitochondrial-dehydrogenases.”
# (§3) 2. […] In vivo, these cells were injected into SCID mice bearing human skin transplants between human skin transplant and mouse acceptor skin. Treatments were started on day 17 after tumor cell injection and extended to day 28 with doses (12.5 mg/kg b.w.) every second day. The therapeutic potential of MBT-0206 and paclitaxel were compared on day 7 after start of treatments (see table below). […] Upon treatment with MBT-0206, tumors only marginally grew to about 1/10 the size of paclitaxel (paclitaxel)-treated tumors.
# [9] = system: Sk-Mel28 tumor; test: Paclitaxel-resistant melanoma model with human skin transplants in vivo; parameters: species or system SCID mice; details: 12.5 mg/kg b.w. every second day
# Method: as §3
# Mes-SA/Dx-5MBT tumor model: tumor volumes on day 23 after start of treatment (9 treatments, i.e. 3 per week, from day 12 to day 31 after tumor cell injection) Sk-Mel tumor model: tumor volumes on day 7 after start of treatment (6 treatments very other day, i.e. from day 17 to day 28 after tumor cell injection).
compound,measurement,setting,value
"Nc1ccn([C@@H]2O[C@H](CO)[C@@H](O)C2(F)F)c(=O)n1 [Gemzar, gemcitabine]",tumor size,[1],398 mm^3
same,mortality at day 24,"[1]; n=9 per group, MBT-0206 5 mg/kg i.v., Gemzar 50 mg/kg i.p.",1 animals dead
same,final tumor volume compared to the control group,[2],47%
CC(=O)O[C@H]1C(=O)[C@@]2(C)[C@H]([C@H](OC(=O)c3ccccc3)[C@]3(O)C[C@H](OC(=O)[C@H](O)[C@@H](NC(=O)c4ccccc4)c4ccccc4)C(C)=C1C3(C)C)[C@]1(OC(C)=O)CO[C@@H]1C[C@@H]2O [paclitaxel],tumor size,[1],536 mm^3
same,final tumor volume compared to the control group,[2],68%
same,weight loss (body weight),[2]; during the last 11 days,2%
same,IC50 (50% growth inhibition),"[3]; 72 h, MTT",0.867 µg/mL
same,fold increased paclitaxel tolerance compared to the parental line Mes-SA (by IC50 values),[3]; FIG. 9,~150 fold
same,IC50,"[3]; 72 h, MTT, read-out: IC50",0.87 µg/mL
same,IC50,"[3]; 72 h, MTT, read-out: IC50 (50% growth inhibition)",~1 µM and ~0.867 µg/mL
same,fold lower IC50 value than in Mes-SA/Dx-5MBT,[4],approximately 7 fold
same,IC50,[5],0.0055 µg/mL
same,IC50,"[6]; FIG. 6, read-out: IC50",~5 µg/mL
same,IC50,[6]; read-out: IC50 (50% growth inhibition),~5 µM and ~5 µg/mL
same,sensitivity of the line for MBT-0206 and paclitaxel,[7],equally sensitive
same,IC50,[8],5.8 µg/mL
same,effect on tumor development,[9],completely ineffective
